Peptide text beside a SMILES is read from it. * marks the point of attachment. Cbz = O=C(OCc1ccccc1)*
Key:
proteasome = format: cell-based

Row | Compound | proteasome activity after MG132 treatment (proteasome) | proteasome activity restored after removal of MG132 (proteasome) | relative proteasome inhibiting activity (proteasome) | cells died (N2A cells) | cell death during proteasome inhibition relative to N2A cells (WtPN2A cells) | rate of N2A cell death (N2A cells)
1 | CC(C)C[C@@H](C=O)NC(=O)[C@H](CC(C)C)NC(=O)[C@H](CC(C)C)NC(=O)OCc1ccccc1 [MG132] (Cbz-Leu-Leu-Leu-aldehyde) | undetectable | > 70 % of control levels | stronger proteasome inhibiting activity than 10 μM Lactacystin | More than 50% | died much more rapidly | –
2 | epoxomicin | – | – | – | – | – | died at the same rates

Reference: patent US20040048237A1 (priority 2002, published 2004)
